The record followed here is patent US20070287693A1, “Benzamide Derivatives That Act Upon The Glucokinase Enzyme” (priority 2004, published 2007).

This series can be described thus: Plasma protein binding by equilibrium dialysis. The series is classed as in vitro ADME. The note with it: rat plasma, 37° C., pH 7.4, read-out: % free in plasma. As for the experimental part: 3) Measurements of Plasma Protein Binding of Compounds
The plasma protein binding of compounds was measured using the equilibrium dialysis technique (W. Lindner et al, J. Chromatography, 1996, 677, 1-28). Compound was dialysed at a concentration of 20 μM for 18 hours at 37° C. with plasma and isotonic phosphate buffer pH 7.4 (1 ml of each in the dialysis cell). A Spectrum® 20-cell equilibrium dialyser was used together with Teflon, semi-micro dialysis cells and Spectra/Por®2 membrane discs with a molecular weight cut off 12-14000 Dalton, 47 mm (supplied by PerBio Science UK Ltd, Tattenhall, Cheshire). Plasma and buffer samples are removed following dialysis and analysed using HPLCUV/MS (high performance liquid chromatography with UV and mass spec detection) to give the % free level in plasma. [drawing 39]
(In general: Equilibrium dialysis compares concentrations on both sides of a semipermeable membrane.)

As for `CC[C@@H](CO)Oc1cc(Oc2ccc(C(=O)N3CCC3)cc2)cc(C(=O)Nc2ccn(C)n2)c1` [Example 13, 3-[4-(azetidin-1-ylcarbonyl)phenoxy]-5-{[(1S)-1-(hydroxymethyl)propyl]oxy}-N-(1-methyl-1H-pyrazol-3-yl)benzamide], the fraction unbound at 18 h, 20 μM amounted to 0.02.
